For data set [1], the system named is C2C12. As to the kind of experiment: Cytotoxicity against mouse C2C12 cells assessed as reduction in cell viability at 0.3 to 10 uM by CCK8 assay. The data set is classed as cell-based. Conditions: c2c12, 10 µM.
In data set [2] the test system is C2C12. As to the kind of experiment: Induction of osteoblast differentiation in mouse C2C12 cells assessed as increase in ALP expression by ALP staining based assay. The data set is classed as functional, cell-based.

Regarding `C[C@@H]1O[C@@H](O[C@H]2[C@H](O[C@H]3CC[C@@]4(C)C(=CC[C@H]5[C@@H]6C[C@@H]7O[C@]8(CC[C@@](C)(CO[C@@H]9O[C@H](CO)[C@@H](O)[C@H](O)[C@H]9O)O8)[C@@H](C)[C@@H]7[C@@]6(C)CC[C@@H]54)C3)O[C@H](CO)[C@@H](O[C@@H]3O[C@H](CO)[C@@H](O)[C@H](O[C@@H]4O[C@H](CO)[C@@H](O)[C@H](O)[C@H]4O)[C@H]3O)[C@@H]2O)[C@H](O)[C@H](O)[C@H]1O`, the Activity entry with C2C12 [1] is “Non-Toxic”; with C2C12 [2], “Dose-dependent effect”.

`O=c1cc(-c2ccc(O)c(O)c2)oc2cc(O)c([C@@H]3O[C@H](CO[C@@H]4OC[C@@H](O)[C@H](O)[C@H]4O)[C@@H](O)[C@H](O)[C@H]3O)c(O)c12`: the Activity result is “Non-Toxic” with C2C12 [1] and “Dose-dependent effect” in the data set with C2C12 [2].

As to `COc1cc(O)c2c(=O)cc(-c3ccc(O)cc3)oc2c1[C@@H]1O[C@H](CO)[C@@H](O)[C@H](O)[C@H]1O[C@@H]1O[C@@H](C)[C@H](O)[C@@H](O)[C@H]1O`, the Activity entry in the data set on C2C12 [1] was “Non-Toxic”; in the data set on C2C12 [2], “Dose-dependent effect”.

With `COC1=CC23/C=C/C(=O)OC[C@@H]4O[C@H](O[C@@H]5CC(C(=O)O)=C[C@@H](OC(=O)/C=C/c6cc(OC)c(c2c6)OC3C[C@H]1O)[C@H]5O)[C@@H](O)[C@H](O)[C@H]4O` (stereo not given in full), the Activity result was “Non-Toxic” in the data set on C2C12 [1] and “Dose-dependent effect” in the data set on C2C12 [2].

With `O=c1cc(-c2ccc(O)cc2)oc2cc(O)c([C@@H]3O[C@H](CO)[C@@H](O)[C@H](O)[C@H]3O[C@@H]3OC[C@H](O)[C@H](O)[C@H]3O)c(O)c12`, the results for the Activity result in the data set with C2C12 [1] and with C2C12 [2] were “Non-Toxic” and “Dose-dependent effect”, respectively.

Source of the values: ChEMBL document CHEMBL4622908, “Two new secondary metabolites isolated from Avena sativa L. (Oat) seedlings and their effects on osteoblast differentiation” (Bioorg Med Chem Lett, 2020).
